Test results taken from patent US20200390100A1, “SUBSTITUTED N-HETEROCYCLYL- AND N-HETEROARYL-TETRAHYDROPYRIMIDINONES AND THE SALTS THEREOF, AND THE USE OF SAME AS HERBICIDAL ACTIVE SUBSTANCES” (Bayer Aktiengesellschaft, priority 2017, published 2020).

What was measured:
Viola tricolor [1] = test: Pre-emergence herbicidal action, greenhouse, 320 g/ha; assay type: in vivo; details: application rate 320 g/ha, Table B8
How it was run: (§1)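 Seeds were sown in pots and covered with soil. WP or EC formulations were sprayed onto the soil surface as aqueous suspension or emulsion with 0.5% additive. Damage was scored visually after about 3 weeks as % activity against untreated controls (100% = plants dead, 0% = like control).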

Amaranthus retroflexus [2] = test: as above; assay type: in vivo; details: application rate 320 g/ha, scored visually after about 3 weeks vs untreated controls
How it was run: as §1

Echinochloa crus-galli [3] = test: as above; assay type: in vivo; details: application rate 320 g/ha, scored visually after about 3 weeks vs untreated controls
How it was run: as §1

Setaria viridis [4] = test: as above; assay type: in vivo; details: application rate 320 g/ha, Table B11
How it was run: as §1

Abutilon theophrasti [5] = test: as above; assay type: in vivo; details: application rate 320 g/ha, scored visually after about 3 weeks vs untreated controls
How it was run: as §1

Stellaria media [6] = test: as above; assay type: in vivo; details: application rate 320 g/ha, scored visually after about 3 weeks vs untreated controls
How it was run: as §1

Hordeum murinum [7] = test: as above; assay type: in vivo; details: application rate 320 g/ha, Table B14
How it was run: as §1

Matricaria inodora [8] = test: as above; assay type: in vivo; details: application rate 320 g/ha, scored visually after about 3 weeks vs untreated controls
How it was run: as §1

Avena fatua = test: as above; assay type: in vivo; details: application rate 320 g/ha, scored visually after about 3 weeks vs untreated controls
How it was run: as §1

Pharbitis purpurea [9] = test: as above; assay type: in vivo; details: application rate 320 g/ha, Table B12
How it was run: as §1

Alopecurus myosuroides = test: as above; assay type: in vivo; details: application rate 320 g/ha, scored visually after about 3 weeks vs untreated controls
How it was run: as §1

Veronica persica [10] = test: as above; assay type: in vivo; details: application rate 320 g/ha, Table B13
How it was run: as §1

Polygonum convolvulus [11] = test: as above; assay type: in vivo; details: application rate 320 g/ha, scored visually after about 3 weeks vs untreated controls
How it was run: as §1

Viola tricolor [12] = test: Post-emergence herbicidal action, greenhouse, 320 g/ha; assay type: in vivo; details: application rate 320 g/ha, rated visually after about 3 weeks vs untreated controls
How it was run: (§2)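 Plants treated post-emergence at the one-leaf stage, 2 to 3 weeks after sowing in sandy loam, with WP or EC formulations plus 0.5% additive at 320 g/ha. Visual rating about 3 weeks later versus untreated controls (100% = dead, 0% = like control).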

Amaranthus retroflexus [13] = test: as above; assay type: in vivo; details: application rate 320 g/ha, rated visually after about 3 weeks vs untreated controls
How it was run: as §2

Setaria viridis [14] = test: as above; assay type: in vivo; details: application rate 320 g/ha, rated visually after about 3 weeks vs untreated controls
How it was run: as §2

Abutilon theophrasti [15] = test: as above; assay type: in vivo; details: application rate 320 g/ha, rated visually after about 3 weeks vs untreated controls
How it was run: as §2

Stellaria media [16] = test: as above; assay type: in vivo; details: application rate 320 g/ha, rated visually after about 3 weeks vs untreated controls
How it was run: as §2

Hordeum murinum [17] = test: as above; assay type: in vivo; details: application rate 320 g/ha, rated visually after about 3 weeks vs untreated controls
How it was run: as §2

Matricaria inodora [18] = test: as above; assay type: in vivo; details: application rate 320 g/ha, rated visually after about 3 weeks vs untreated controls
How it was run: as §2

Pharbitis purpurea [19] = test: as above; assay type: in vivo; details: application rate 320 g/ha, rated visually after about 3 weeks vs untreated controls
How it was run: as §2

Polygonum convolvulus [20] = test: as above; assay type: in vivo; details: application rate 320 g/ha, rated visually after about 3 weeks vs untreated controls
How it was run: as §2

Poa annua = test: Herbicidal pre-emergence action (Part 2), 1280 g/ha; assay type: in vivo; details: application rate 1280 g/ha, scored visually after about 3 weeks, Table D3
How it was run: (§3)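 Weed seeds were sown in sandy loam and covered with soil, then compound formulated as WP or EC was sprayed onto the covering soil as aqueous suspension/emulsion with 0.5% additive at 600 L/ha water. Pots were kept in a greenhouse; activity was scored visually versus untreated controls after about 3 weeks (0–100%).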

Amaranthus retroflexus [21] = test: as above; assay type: in vivo; details: application rate 1280 g/ha, scored visually after about 3 weeks, Table D6
How it was run: as §3

Echinochloa crus-galli [22] = test: as above; assay type: in vivo; details: application rate 1280 g/ha, scored visually after about 3 weeks, Table D1
How it was run: as §3

Setaria viridis [23] = test: as above; assay type: in vivo; details: application rate 1280 g/ha, scored visually after about 3 weeks, Table D4
How it was run: as §3

Abutilon theophrasti [24] = test: as above; assay type: in vivo; details: application rate 1280 g/ha, scored visually after about 3 weeks, Table D5
How it was run: as §3

Stellaria media [25] = test: as above; assay type: in vivo; details: application rate 1280 g/ha, scored visually after about 3 weeks, Table D8
How it was run: as §3

Matricaria inodora [26] = test: as above; assay type: in vivo; details: application rate 1280 g/ha, scored visually after about 3 weeks, Table D7
How it was run: as §3

Lolium rigidum = test: as above; assay type: in vivo; details: application rate 1280 g/ha, scored visually after about 3 weeks, Table D2
How it was run: as §3

Digitaria sanguinalis [27] = test: Post-emergence herbicidal action, greenhouse, 320 g/ha; assay type: in vivo; details: application rate 320 g/ha, rated visually after about 3 weeks vs untreated controls
How it was run: as §2

Veronica persica [28] = test: as above; assay type: in vivo; details: application rate 320 g/ha, rated visually after about 3 weeks vs untreated controls
How it was run: as §2

photosystem II (PS II) = biological target: T1, photosystem II (PS II) (Spinacia oleracea, UniProt P69560); test: Measurement of PS II activity in thylakoid membranes (DCPIP reduction); assay type: biochemical, spinach; details: PS II activity in spinach thylakoid membranes, Table E1; read-out: Effect
T1 construct: the chloroplasts were osmotically ruptured and the thylakoid membranes were then obtained by centrifugation; from tissue; host or cells: fresh spinach leaves; thylakoid membrane preparation from isolated chloroplasts
Method: Cooled fresh spinach leaves were comminuted and homogenized in 50 mM phosphate buffer, pH 6.8. 10 mM KCl, 0.34 M sucrose (sucrose buffer) (blender, 1 g of plant material/ml). The homogenate was subsequently filtered through 4 layers of Miracloth and the chloroplasts were isolated by centrifugation, i.e. 10 min of centrifugation at 4400×g (4° C.). The sediment was suspended in 25 ml of sucrose buffer and re-centrifuged for 10 min at 4400×g (4° C.). The sediment was then suspended in 40 ml of 50 mM phosphate buffer, pH 6.8, 10 mM KCl, without sucrose. In this step, the chloroplasts were osmotically ruptured and the thylakoid membranes were then obtained by centrifugation (10 min, 4400×g, 4° C.). The membrane sediment was finally suspended in about 20 ml of 50 mM phosphate buffer, pH 6.8, 10 mM KCl. Following protein determination and activity determination, the membrane suspension was divided into aliquots and frozen in liquid nitrogen. The aliquots were stored at −80° C. Under these conditions, the photosystem II preparation was storage stable for at least three months. The activity determination of photosystem II (PS II) was then carried out using the following test principle: The electron transfer from PS II to an artificial electron acceptor, 2,6-dichlorophenolindophenol (DCPIP), was measured with exposure to light. The concentration of the blue oxidized form of DCPIP was determined spectrophotometrically at wavelength λ=595 nm. […] The activity determination is carried out in microtiter plates (96 cavities) in a reaction volume of 200 μl. Here, 155 μl of dilute membrane suspension were initially charged in 50 mM of phosphate buffer, pH 6.8, 10 mM KCl. Depending on the activity of the PS II preparation, the dilution was adjusted such that the measurement of the decrease in absorption (λ=595 nm) was linear for at least 10 min. In each case 5 μl solutions of the test compounds of a concentration of 100 μM in DMSO were added to the enzyme suspension; controls contained 5 μl of DMSO; the final concentration of DMSO in the reaction batch was thus 2.5% (v/v); this concentration had no adverse effect on the enzymatic activity. On each microtiter plate, a known PS II inhibitor, for example metribuzin, was used as standard, which allowed the quality of the PS II test to be assessed. The reaction was started by addition of 40 μl DCPIP solution (600 μM in distilled water); the final concentration of DCPIP was 120 μM. Measurement of absorption is carried out over a period of 10 min at 22° C. and with exposure to light. Using metribuzin as comparative substance, the results for the efficacy of the compounds of the general formula (I) at 100 μM are stated in the table below using the following classification: ++++(inhibition≥90%), +++(90%>inhibition≥70%), ++(70%>inhibition≥50%), +(50%>inhibition≥30%).

Digitaria sanguinalis [29] = test: Pre-emergence herbicidal action, greenhouse, 320 g/ha; assay type: in vivo; details: application rate 320 g/ha, Table B9
How it was run: as §1

Amaranthus retroflexus [30] = test: Herbicidal post-emergence action (Part 2), 1280 g/ha; assay type: in vivo; details: application rate 1280 g/ha, rated visually after about 3 weeks, Table C5
How it was run: (§4)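 Weeds sown in sandy loam, greenhouse-grown 2 to 3 weeks and sprayed at the one-leaf stage with WP or EC formulations as aqueous suspension or emulsion plus 0.5% additive at 600 liters per hectare water. Activity rated visually about 3 weeks later versus untreated controls (0% = like control, 100% = dead).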

Echinochloa crus-galli [31] = test: as above; assay type: in vivo; details: post-emergence (Part 2), application rate 1280 g/ha, rated visually after about 3 weeks vs untreated controls
How it was run: as §4

Stellaria media [32] = test: as above; assay type: in vivo; details: application rate 1280 g/ha, rated visually after about 3 weeks, Table C7
How it was run: as §4

Matricaria inodora [33] = test: as above; assay type: in vivo; details: application rate 1280 g/ha, rated visually after about 3 weeks, Table C6
How it was run: as §4

SMILES | Viola tricolor (efficacy in %) (Viola tricolor [1]) | Amaranthus retroflexus (efficacy in %) (Amaranthus retroflexus [2]) | Echinochloa crus-galli (efficacy in %) (Echinochloa crus-galli [3]) | Setaria viridis (efficacy in %) (Setaria viridis [4]) | Abutilon theophrasti (efficacy in %) (Abutilon theophrasti [5]) | Stellaria media (efficacy in %) (Stellaria media [6]) | Hordeum murinum (efficacy in %) (Hordeum murinum [7]) | Matricaria inodora (efficacy in %) (Matricaria inodora [8]) | Avena fatua (efficacy in %) (Avena fatua) | Alopecurus myosuroides (efficacy in %) (Alopecurus myosuroides) | Veronica persica (efficacy in %) (Veronica persica [10]) | Polygonum convolvulus (efficacy in %) (Polygonum convolvulus [11]) | Viola tricolor (efficacy in %) (Viola tricolor [12]) | Amaranthus retroflexus (efficacy in %) (Amaranthus retroflexus [13]) | Abutilon theophrasti (efficacy in %) (Abutilon theophrasti [15]) | Stellaria media (efficacy in %) (Stellaria media [16]) | Matricaria inodora (efficacy in %) (Matricaria inodora [18]) | Pharbitis purpurea (efficacy in %) (Pharbitis purpurea [19]) | Polygonum convolvulus (efficacy in %) (Polygonum convolvulus [20]) | Digitaria sanguinalis (efficacy in %) (Digitaria sanguinalis [27]) | other results
CN1CCC(OC(=O)C(C)(C)C)N(c2cc(C(C)(C)C)on2)C1=O (stereo not drawn) [I.6-162] | 100% | 100% | 100% | 100% | 100% | 100% | 90% | 100% | 90% | 90% | 100% | 90% | 100% | 80% | 100% | 100% | 100% | 90% | 100% |  | Pharbitis purpurea (efficacy in %) (Pharbitis purpurea [9]): 90%; Setaria viridis (efficacy in %) (Setaria viridis [14]): 100%; Hordeum murinum (efficacy in %) (Hordeum murinum [17]): 90%
CCC(=O)OC1CC2CCCN2C(=O)N1c1cc(C(C)(C)C)on1 (stereo not drawn) [I.123-162] |  |  |  |  |  |  |  |  |  |  |  |  | 100% | 100% | 100% | 100% | 80% |  | 100% | 100% | Poa Annua (Poa annua): 100%; Amaranthus retroflexus (Amaranthus retroflexus [21]): 100%; Echinochloa crus-galli (Echinochloa crus-galli [22]): 100%; Setaria viridis (Setaria viridis [23]): 100%; Abutilon theophrasti (Abutilon theophrasti [24]): 100%; Stellaria media (Stellaria media [25]): 100%; Matricaria inodora (Matricaria inodora [26]): 100%; Lolium rigidum (Lolium rigidum): 100%
CCCC(=O)OC1CCN(C)C(=O)N1c1cc(C(C)(C)C)on1 (stereo not drawn) [I.4-162, 3-(5-tert-Butyl-1,2-oxazol-3-yl)-1-methyl-2-oxohexahydropyrimidin-4-yl Butyrate] | 100% | 100% | 90% | 100% | 100% | 100% | 90% | 100% | 90% | 90% | 100% | 90% | 90% | 100% | 100% | 100% | 100% | 100% | 100% | 80% | Setaria viridis (efficacy in %) (Setaria viridis [14]): 100%; Veronica persica (efficacy in %) (Veronica persica [28]): 100%; inhibition at 100 µM (photosystem II (PS II)): 50 to 70%
CC(=O)OC1CC(C)N(C)C(=O)N1c1cc(C(C)(C)C)on1 (mixture of isomers) [I.42-162] | 90% | 100% | 80% | 100% | 100% | 100% | 90% | 100% | 80% | 90% |  | 90% |  |  |  |  |  | 100% |  | 100% | Digitaria sanguinalis (efficacy in %) (Digitaria sanguinalis [29]): 80%; Amaranthus retroflexus (Amaranthus retroflexus [30]): 100%; Echinochloa crus-galli (Echinochloa crus-galli [31]): 100%; Stellaria media (Stellaria media [32]): 100%; Matricaria inodora (Matricaria inodora [33]): 100%; Poa Annua (Poa annua): 100%; Amaranthus retroflexus (Amaranthus retroflexus [21]): 100%; Echinochloa crus-galli (Echinochloa crus-galli [22]): 100%; Stellaria media (Stellaria media [25]): 100%; Matricaria inodora (Matricaria inodora [26]): 100%; Hordeum murinum (efficacy in %) (Hordeum murinum [17]): 90%
